# From patent publication US9132130B2, “Purine derivative and antitumor agent using same” (ZENYAKU KOGYO KABUSHIKI KAISHA, priority 2009, dated 2015)
# Columns and labels:
# [1] = test system: human prostate cancer PC-3; assay: in vivo antitumor activity, nude mice transplanted with human prostate cancer PC-3; parameters: species or system BALB/c-nu/nu mice; conditions: PC-3 in nude mice, 400 mg/kg orally daily day 0 to day 13 (12 times), tumor volume at day 14
# Experimental: (§1) Tumor tissue fragments of human prostate cancer PC-3 (3 mm×3 mm×3 mm) were transplanted subcutaneously into the chests of six-week-old female BALB/c-nu/nu mice, and sample administration started when the tumor volume reached at least approximately 100 mm^3 (day 0). Compound 2 was suspended in a 1% HPC (L) solution using an agate mortar. 400 mg/kg of Compound 2 was orally administered daily from day 0 to day 13 (excluding day 3 and day 10, a total of 12 times). Tumor diameters were measured to calculate tumor volume (½×long diameter×short diameter×short diameter), and the tumor volume after 14 days (at day 14) from the start of sample administration was divided by the tumor volume at the start of the administration to calculate relative tumor growth rate. The percentage of the relative tumor growth rate of the control group with respect to the relative tumor growth rate of the group administered with Compound 2 was taken as T/C (%).
# human lung cancer A549 = assay: in vivo antitumor activity, nude mice transplanted with human lung cancer A549; parameters: species or system BALB/c-nu/nu mice; conditions: 400 mg/kg orally daily day 0 to day 13 (12 times), tumor volume at day 14
# Experimental: as §1, with “of human lung cancer A549” for “of human prostate cancer PC-3”, “lung cancer A549 (3 mm×3” for “prostate cancer PC-3 (3 mm×3”, “Compound 2 and Compound 7 were suspended in” for “Compound 2 was suspended in”, “a 1% hydroxypropylcellulose (HPC [L]) solution using” for “a 1% HPC (L) solution using”, “day 10, a total of 12 times). 400 mg/kg of Compound 7 was intraperitoneally administered daily from day 0 to day 13 (excluding day 4 and day 11, a total” for “day 10, a total”, “Compound 2 or Compound 7 was taken” for “Compound 2 was taken”
# [2] = test system: MCF-7 cells (human breast cancer cells); assay: antitumor activity against breast cancer cells, cell counting; type: cell-based; conditions: MCF7; MCF-7 human breast cancer cells, cultured 72 hours, cell counter
# Experimental: MCF-7 cells (human breast cancer cells) subcultured in a culture medium composed of a MEM medium added with 10% fetal bovine serum, 25 mM HEPES and 0.1 mg/ml kanamycin under the conditions of 37° C. and 5% carbon dioxide gas were made into single floating cells by treating with trypsin/EDTA, and a single cell suspension of 4×10^4 cells per 1 ml was prepared using the MEM medium (added with 10% fetal bovine serum, 25 mM HEPES and 0.1 mg/ml kanamycin). After dissolving the test substances (Compound 2 and Compound 7) in DMSO, they were diluted with the MEM medium (added with 10% fetal bovine serum, 25 mM HEPES and 0.1 mg/ml kanamycin) and prepared so that the concentrations were 6.4×10^−8 to 2.0×10^−5 M.
# 0.1 ml of the cell suspension was placed into each well of a 96-well microplate, cultured for 24 hours to allow the cells to adhere to the microplate, then 0.1 ml of the sample solutions were added, and cultured for 72 hours at 37° C. in 5% carbon dioxide gas.
# Afterwards, the cells in each well were made single floating cells by treating with trypsin/EDTA, and the number of cells was counted using a cell counter to obtain the growth inhibition rate at various sample concentrations and calculate the concentrations at which growth was inhibited by 50% (GI50 values [μM]).
# [3] = test system: PC-3 cells (human prostate cancer cells); assay: in vitro antitumor activity test, PC-3 cells, XTT colorimetry; type: cell-based; conditions: PC-3 human prostate cancer cells, cultured 72 hours
# Procedure, shortened: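 PC-3 human prostate cancer cells, seeded at 2×10^4 cells/ml and allowed to adhere for 24 h, were exposed 72 h at 37° C, 5% CO2 to compound diluted in RPMI 1640 with 10% FBS to 2.0×10^−9 to 2.0×10^−4 M (pre-addition solutions). Growth was measured by XTT colorimetry and GI50 (μM) calculated.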
# human colon cancer WiDr = assay: in vivo antitumor activity, nude mice transplanted with human colon cancer WiDr; parameters: species or system BALB/c-nu/nu mice; conditions: 400 mg/kg orally daily day 0 to day 13 (12 times), tumor volume at day 14
# Experimental: as §1, with “colon” for “prostate”, “WiDr” for “PC-3”
# [4] = test system: B16F10 cells (mouse melanoma [malignant melanoma] cells); assay: in vitro antitumor activity test, B16F10 cells, XTT colorimetry; type: cell-based; conditions: B16-F10, cultured 72 hours
# Procedure, shortened: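 B16F10 mouse melanoma cells were seeded from a 1×10^4 cells/ml suspension and allowed to adhere for 24 h. Compounds in DMSO were diluted in RPMI 1640 with 10% FBS to 2.0×10^−9 to 2.0×10^−4 M and incubated 72 h at 37° C, 5% CO2. XTT colorimetry gave GI50 (μM).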
# [5] = test system: WiDr cells (human colon cancer cells); assay: in vitro antitumor activity test, WiDr cells, XTT colorimetry; type: cell-based; conditions: cultured 72 hours
# Procedure, shortened: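 Human colon cancer cells in MEM/10% FBS were seeded 3×10^4 cells/ml and allowed to adhere for 24 h, then exposed to compounds prepared at 2.0×10^−9 to 2.0×10^−4 M in RPMI 1640 for 72 h at 37° C, 5% CO2. Growth was read by XTT colorimetry and GI50 (μM) calculated.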
# [6] = test system: A549 cells (human lung cancer cells); assay: in vitro antitumor activity test, A549 cells, XTT colorimetry; type: cell-based; conditions: cultured 72 hours
# Procedure, shortened: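 Cells seeded at 2×10^4 cells/ml in MEM + 10% FBS, 25 mM HEPES, kanamycin, allowed to adhere 24 h, then exposed to compounds (DMSO stocks diluted in RPMI 1640; prepared at 2.0×10^−9 to 2.0×10^−4 M) for 72 h at 37 °C, 5% CO2. Growth inhibition read by XTT colorimetry; GI50 (μM) calculated.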
# [7] = test system: P388 cells (mouse leukemia cells); assay: in vitro antitumor activity test, P388 cells, XTT colorimetry; type: cell-based; conditions: cultured 72 hours
# Procedure, shortened: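 Cells from DBA/2 mouse ascites, in RPMI 1640 with 10% FBS and 25 mM HEPES, seeded from a 4×10^4 cells/ml suspension. Equal volume added of compound solutions prepared at 2.0×10^−9 to 2.0×10^−4 M (pre-mixing). After 72 h at 37° C, 5% CO2, growth read by XTT; GI50 (μM) is the concentration giving 50% growth inhibition.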
smiles,measurement,setting,value
"CCc1nc2c(N3CCOCC3)nc(SCc3ccc(OC)c(N)c3)nc2n1C [Compound 2, 2-(3-amino-4-methoxybenzylsulfanyl)-8-ethyl-9-methyl-6-morpholino-9H-purine]",T/C,[1],32.2%
same,T/C,human lung cancer A549,73.1%
same,GI50,[2],110 nM
same,GI50,[3],100 nM
same,T/C,human colon cancer WiDr,62.1%
same,GI50,[4],300 nM
same,GI50,[5],300 nM
same,GI50,[6],140 nM
same,melting point,,139 °C
same,GI50,[7],110 nM
